Measured values: ChEMBL document CHEMBL1275482, “Point mutation in the group B streptococcal pbp2x gene conferring decreased susceptibility to beta-lactam antibiotics” (2008)
In brackets after ≈: the same amount, converted by molar mass.

Legend:
[1] = system: Streptococcus sp. 'group B'; test: Antimicrobial activity against group B Streptococcus sp. 'group B' serotype V isolate 4857-03 by broth dilution method; assay type: functional
[2] = system: Streptococcus sp. 'group B'; test: Antimicrobial activity against group B Streptococcus sp. 'group B' serotype IB isolate 5436-03 by broth dilution method; assay type: functional
[3] = system: Streptococcus sp. 'group B'; test: Antimicrobial activity against group B Streptococcus sp. 'group B' serotype IV isolate 3454-03 by broth dilution method; assay type: functional
[4] = system: Streptococcus sp. 'group B'; test: Antimicrobial activity against group B Streptococcus sp. 'group B' serotype III isolate 8607 with chromosomal pbp2x(Q557E) replaced by wild-type pbp2x through allelic exchange by broth dilution method
[5] = system: Streptococcus sp. 'group B'; test: Antimicrobial activity against group B Streptococcus sp. 'group B' serotype III isolate 7507-03 expressing pbp2x Q557E mutant and multilocus sequence type ST19 by broth dilution method; assay type: functional
[6] = system: Streptococcus sp. 'group B'; test: Antimicrobial activity against group B Streptococcus sp. 'group B' serotype II isolate 9051-04 by broth dilution method; assay type: functional
[7] = system: Streptococcus sp. 'group B'; test: Antimicrobial activity against group B Streptococcus sp. 'group B' serotype III isolate 3444-99 by broth dilution method; assay type: functional
[8] = system: Streptococcus sp. 'group B'; test: Antimicrobial activity against group B Streptococcus sp. 'group B' serotype III isolate 3789-04 expressing pbp2x Q557E mutant and multilocus sequence type ST19 by broth dilution method; assay type: functional
[9] = system: Streptococcus sp. 'group B'; test: Antimicrobial activity against group B Streptococcus sp. 'group B' isolate 6149-03 by broth dilution method; assay type: functional
[10] = system: Streptococcus sp. 'group B'; test: Antimicrobial activity against group B Streptococcus sp. 'group B' serotype IA isolate 7490-03 by broth dilution method; assay type: functional
[11] = system: Streptococcus sp. 'group B'; test: Antimicrobial activity against group B Streptococcus sp. 'group B' serotype IA isolate 9012-04 by broth dilution method; assay type: functional
[12] = system: Streptococcus sp. 'group B'; test: Antimicrobial activity against group B Streptococcus sp. 'group B' serotype IA isolate 5662-05 by broth dilution method; assay type: functional
[13] = system: Streptococcus sp. 'group B'; test: Antimicrobial activity against group B Streptococcus sp. 'group B' isolate 4214-03 by broth dilution method; assay type: functional
[14] = system: Streptococcus sp. 'group B'; test: Antimicrobial activity against group B Streptococcus sp. 'group B' serotype III isolate 8607-03 expressing pbp2x Q557E mutant and multilocus sequence type ST19 by broth dilution method; assay type: functional
[15] = system: Streptococcus sp. 'group B'; test: Antimicrobial activity against group B Streptococcus sp. 'group B' serotype III isolate 7037-99 by broth dilution method; assay type: functional
[16] = system: Streptococcus sp. 'group B'; test: Antimicrobial activity against group B Streptococcus sp. 'group B' serotype V isolate 9171-03 by broth dilution method; assay type: functional
[17] = system: Streptococcus sp. 'group B'; test: Antimicrobial activity against group B Streptococcus sp. 'group B' serotype III isolate 8607-03 expressing pbp2x Q557E mutant and harboring empty vector by broth dilution method; assay type: functional
[18] = system: Streptococcus sp. 'group B'; test: Antimicrobial activity against group B Streptococcus sp. 'group B' serotype III isolate 6138-03 expressing pbp2x Q557E mutant and multilocus sequence type ST19 by broth dilution method; assay type: functional
[19] = system: Streptococcus sp. 'group B'; test: Antimicrobial activity against group B Streptococcus sp. 'group B' serotype II isolate 3776-04 by broth dilution method; assay type: functional
[20] = system: Streptococcus sp. 'group B'; test: Antimicrobial activity against group B Streptococcus sp. 'group B' serotype III isolate 8607-03 expressing pbp2x Q557E mutant and harboring plasmid expressing wild-type pbp2x by broth dilution method; assay type: functional
[21] = system: Streptococcus sp. 'group B'; test: Antimicrobial activity against group B Streptococcus sp. 'group B' serotype IA isolate 3047-05 by broth dilution method; assay type: functional
[22] = system: Streptococcus sp. 'group B'; test: Antimicrobial activity against group B Streptococcus sp. 'group B' isolate 7368-04 by broth dilution method; assay type: functional
[23] = system: Streptococcus sp. 'group B'; test: Antimicrobial activity against group B Streptococcus sp. 'group B' serotype V isolate 5677-04 by broth dilution method; assay type: functional
[24] = system: Streptococcus sp. 'group B'; test: Antimicrobial activity against group B Streptococcus sp. 'group B' serotype IA isolate 6649-05 by broth dilution method; assay type: functional
[25] = system: Streptococcus sp. 'group B'; test: Antimicrobial activity against group B Streptococcus sp. 'group B' serotype V isolate 3386-05 by broth dilution method; assay type: functional

Row | SMILES | MIC [1] | MIC [2] | MIC [3] | MIC [4] | MIC [5] | MIC [6] | MIC [7] | MIC [8] | MIC [9] | MIC [10] | MIC [11] | MIC [12] | MIC [13] | MIC [14] | MIC [15] | MIC [16] | MIC [17] | MIC [18] | MIC [19] | MIC [20] | other results
1 | CO/N=C(\C(=O)N[C@@H]1C(=O)N2C(C(=O)O)=C(COC(N)=O)CS[C@H]12)c1ccco1 [CEFUROXIME] | 0.06 µg/mL (≈ 0.141 µM) | 0.25 µg/mL (≈ 0.589 µM) | 0.06 µg/mL (≈ 0.141 µM) | 0.06 µg/mL (≈ 0.141 µM) | 0.12 µg/mL (≈ 0.283 µM) | 0.06 µg/mL (≈ 0.141 µM) | 0.06 µg/mL (≈ 0.141 µM) | 0.12 µg/mL (≈ 0.283 µM) | 0.06 µg/mL (≈ 0.141 µM) | 0.06 µg/mL (≈ 0.141 µM) | 0.06 µg/mL (≈ 0.141 µM) | 0.03 µg/mL (≈ 0.0707 µM) | 0.12 µg/mL (≈ 0.283 µM) | 0.12 µg/mL (≈ 0.283 µM) | 0.06 µg/mL (≈ 0.141 µM) | 0.06 µg/mL (≈ 0.141 µM) | 0.5 µg/mL (≈ 1.18 µM) | 0.25 µg/mL (≈ 0.589 µM) | 0.12 µg/mL (≈ 0.283 µM) | 0.06 µg/mL (≈ 0.141 µM) | MIC [21]: 0.06 µg/mL (≈ 0.141 µM); MIC [22]: 0.06 µg/mL (≈ 0.141 µM); MIC [23]: 0.12 µg/mL (≈ 0.283 µM)
2 | CC1(C)S[C@@H]2[C@H](NC(=O)[C@H](N)c3ccccc3)C(=O)N2[C@H]1C(=O)O [AMPICILLIN] | 0.25 µg/mL (≈ 0.715 µM) | 0.06 µg/mL (≈ 0.172 µM) | 0.25 µg/mL (≈ 0.715 µM) | 0.06 µg/mL (≈ 0.172 µM) | 0.12 µg/mL (≈ 0.343 µM) | 0.12 µg/mL (≈ 0.343 µM) | 0.12 µg/mL (≈ 0.343 µM) | 0.12 µg/mL (≈ 0.343 µM) | 0.12 µg/mL (≈ 0.343 µM) | 0.12 µg/mL (≈ 0.343 µM) | 0.06 µg/mL (≈ 0.172 µM) | 0.12 µg/mL (≈ 0.343 µM) | 0.25 µg/mL (≈ 0.715 µM) | 0.06 µg/mL (≈ 0.172 µM) | 0.12 µg/mL (≈ 0.343 µM) | 0.12 µg/mL (≈ 0.343 µM) | 0.06 µg/mL (≈ 0.172 µM) | 0.06 µg/mL (≈ 0.172 µM) | 0.25 µg/mL (≈ 0.715 µM) | 0.06 µg/mL (≈ 0.172 µM) | MIC [24]: 0.25 µg/mL (≈ 0.715 µM); MIC [21]: 0.12 µg/mL (≈ 0.343 µM); MIC [22]: 0.12 µg/mL (≈ 0.343 µM); MIC [23]: 0.25 µg/mL (≈ 0.715 µM); MIC [25]: 0.06 µg/mL (≈ 0.172 µM)
3 | CO[C@@]1(NC(=O)Cc2cccs2)C(=O)N2C(C(=O)O)=C(COC(N)=O)CS[C@@H]21 [CEFOXITIN] | 4 µg/mL (≈ 9.36 µM) | 16 µg/mL (≈ 37.4 µM) | 8 µg/mL (≈ 18.7 µM) | 2 µg/mL (≈ 4.68 µM) | 16 µg/mL (≈ 37.4 µM) | 8 µg/mL (≈ 18.7 µM) | 8 µg/mL (≈ 18.7 µM) | 16 µg/mL (≈ 37.4 µM) | 8 µg/mL (≈ 18.7 µM) | 2 µg/mL (≈ 4.68 µM) | 16 µg/mL (≈ 37.4 µM) | 8 µg/mL (≈ 18.7 µM) | 4 µg/mL (≈ 9.36 µM) | 16 µg/mL (≈ 37.4 µM) | 8 µg/mL (≈ 18.7 µM) | 4 µg/mL (≈ 9.36 µM) | 16 µg/mL (≈ 37.4 µM) | 16 µg/mL (≈ 37.4 µM) | 8 µg/mL (≈ 18.7 µM) | 2 µg/mL (≈ 4.68 µM) | MIC [24]: 4 µg/mL (≈ 9.36 µM); MIC [21]: 8 µg/mL (≈ 18.7 µM); MIC [22]: 4 µg/mL (≈ 9.36 µM); MIC [23]: 16 µg/mL (≈ 37.4 µM); MIC [25]: 16 µg/mL (≈ 37.4 µM)
4 | Cc1nnc(SCC2=C(C(=O)O)N3C(=O)[C@@H](NC(=O)Cn4cnnn4)[C@H]3SC2)s1 [CEFAZOLIN] | 0.5 µg/mL (≈ 1.1 µM) | 1 µg/mL (≈ 2.2 µM) | 0.5 µg/mL (≈ 1.1 µM) | 2 µg/mL (≈ 4.4 µM) | 0.5 µg/mL (≈ 1.1 µM) | 0.25 µg/mL (≈ 0.55 µM) | 0.25 µg/mL (≈ 0.55 µM) | 1 µg/mL (≈ 2.2 µM) | 0.25 µg/mL (≈ 0.55 µM) | 0.25 µg/mL (≈ 0.55 µM) | 0.25 µg/mL (≈ 0.55 µM) | 0.25 µg/mL (≈ 0.55 µM) | 0.5 µg/mL (≈ 1.1 µM) | 0.5 µg/mL (≈ 1.1 µM) | 0.25 µg/mL (≈ 0.55 µM) | 0.25 µg/mL (≈ 0.55 µM) | 16 µg/mL (≈ 35.2 µM) | 0.5 µg/mL (≈ 1.1 µM) | 0.25 µg/mL (≈ 0.55 µM) | 2 µg/mL (≈ 4.4 µM) | MIC [24]: 0.5 µg/mL (≈ 1.1 µM); MIC [21]: 0.25 µg/mL (≈ 0.55 µM); MIC [22]: 0.5 µg/mL (≈ 1.1 µM); MIC [23]: 1 µg/mL (≈ 2.2 µM); MIC [25]: 0.12 µg/mL (≈ 0.264 µM)
5 | CC1(C)S[C@@H]2[C@H](NC(=O)Cc3ccccc3)C(=O)N2[C@H]1C(=O)O [PENICILLIN G] | 0.12 µg/mL (≈ 0.359 µM) | 0.03 µg/mL (≈ 0.0897 µM) | 0.12 µg/mL (≈ 0.359 µM) | 0.015 µg/mL (≈ 0.0449 µM) | 0.12 µg/mL (≈ 0.359 µM) | 0.06 µg/mL (≈ 0.179 µM) | 0.06 µg/mL (≈ 0.179 µM) | 0.12 µg/mL (≈ 0.359 µM) | 0.06 µg/mL (≈ 0.179 µM) | 0.06 µg/mL (≈ 0.179 µM) | 0.06 µg/mL (≈ 0.179 µM) | 0.06 µg/mL (≈ 0.179 µM) | 0.12 µg/mL (≈ 0.359 µM) | 0.12 µg/mL (≈ 0.359 µM) | 0.06 µg/mL (≈ 0.179 µM) | 0.06 µg/mL (≈ 0.179 µM) | 0.12 µg/mL (≈ 0.359 µM) | 0.12 µg/mL (≈ 0.359 µM) | 0.12 µg/mL (≈ 0.359 µM) | 0.015 µg/mL (≈ 0.0449 µM) | MIC [24]: 0.12 µg/mL (≈ 0.359 µM); MIC [21]: 0.06 µg/mL (≈ 0.179 µM); MIC [22]: 0.12 µg/mL (≈ 0.359 µM); MIC [23]: 0.12 µg/mL (≈ 0.359 µM); MIC [25]: 0.03 µg/mL (≈ 0.0897 µM)
6 | CO/N=C(\C(=O)N[C@@H]1C(=O)N2C(C(=O)O)=C(COC(C)=O)CS[C@H]12)c1csc(N)n1 [CEFOTAXIME] | 0.06 µg/mL (≈ 0.132 µM) | 0.25 µg/mL (≈ 0.549 µM) | 0.25 µg/mL (≈ 0.549 µM) | 0.03 µg/mL (≈ 0.0659 µM) | 0.12 µg/mL (≈ 0.263 µM) | 0.06 µg/mL (≈ 0.132 µM) | 0.06 µg/mL (≈ 0.132 µM) | 0.25 µg/mL (≈ 0.549 µM) | 0.06 µg/mL (≈ 0.132 µM) | 0.12 µg/mL (≈ 0.263 µM) | 0.06 µg/mL (≈ 0.132 µM) | 0.06 µg/mL (≈ 0.132 µM) | 0.12 µg/mL (≈ 0.263 µM) | 0.25 µg/mL (≈ 0.549 µM) | 0.12 µg/mL (≈ 0.263 µM) | 0.12 µg/mL (≈ 0.263 µM) | 0.25 µg/mL (≈ 0.549 µM) | 0.25 µg/mL (≈ 0.549 µM) | 0.12 µg/mL (≈ 0.263 µM) | 0.015 µg/mL (≈ 0.0329 µM) | MIC [24]: 0.12 µg/mL (≈ 0.263 µM); MIC [21]: 0.06 µg/mL (≈ 0.132 µM); MIC [22]: 0.06 µg/mL (≈ 0.132 µM); MIC [23]: 0.12 µg/mL (≈ 0.263 µM); MIC [25]: 0.06 µg/mL (≈ 0.132 µM)
